Converted amounts (≈) assume the structure as drawn.
How the values were obtained:
Format in all cases: functional
[1] = tested on: Cryptococcus neoformans; test: Antifungal activity against Cryptococcus neoformans 32609 assessed as inhibition of fungal growth incubated for 72 hrs by CLSI based broth microdilution assay
[2] = tested on: Pichia kudriavzevii; test: Antifungal activity against Candida krusei 4996 assessed as inhibition of fungal growth incubated for 48 hrs by CLSI based broth microdilution assay
[3] = tested on: Candida albicans; test: Antifungal activity against Candida albicans 10231 assessed as inhibition of fungal growth incubated for 48 hrs by CLSI based broth microdilution assay
[4] = tested on: Candida parapsilosis; test: Antifungal activity against Candida parapsilosis 22019 assessed as inhibition of fungal growth incubated for 48 hrs by CLSI based broth microdilution assay; conditions: Lodderomyces parapsilosis
[5] = tested on: Candida albicans; test: Antifungal activity against Candida albicans SC5314 assessed as inhibition of fungal growth incubated for 48 hrs by CLSI based broth microdilution assay
[6] = tested on: Nakaseomyces glabratus; test: Antifungal activity against Candida glabrata 537 assessed as inhibition of fungal growth incubated for 48 hrs by CLSI based broth microdilution assay
[7] = tested on: Candida tropicalis; test: Antifungal activity against Candida tropicalis 8915 assessed as inhibition of fungal growth incubated for 48 hrs by CLSI based broth microdilution assay
[8] = tested on: [Candida] auris; test: Antifungal activity against fluconazole-resistant Candida auris 891 assessed as inhibition of fungal growth incubated for 48 hrs by CLSI based broth microdilution assay; conditions: Candidozyma auris
[9] = tested on: [Candida] auris; test: Antifungal activity against fluconazole-resistant Candida auris 919 assessed as inhibition of fungal growth incubated for 48 hrs by CLSI based broth microdilution assay; conditions: Candidozyma auris
[10] = tested on: Candida albicans; test: Antifungal activity against fluconazole-resistant Candida albicans 904 assessed as inhibition of fungal growth incubated for 48 hrs by CLSI based broth microdilution assay
[11] = tested on: Candida albicans; test: Antifungal activity against fluconazole-resistant Candida albicans 901 assessed as inhibition of fungal growth incubated for 48 hrs by CLSI based broth microdilution assay
[12] = tested on: [Candida] auris; test: Antifungal activity against fluconazole-resistant Candida auris 918 assessed as inhibition of fungal growth incubated for 48 hrs by CLSI based broth microdilution assay; conditions: Candidozyma auris

Row | Structure (SMILES) | MIC [1] [µg/mL] | MIC [2] [µg/mL] | MIC [3] [µg/mL] | MIC [4] [µg/mL] | MIC [5] [µg/mL] | MIC [6] [µg/mL] | MIC [7] [µg/mL] | MIC [8] [µg/mL] | MIC [9] [µg/mL] | MIC [10] [µg/mL] | MIC [11] [µg/mL] | MIC [12] [µg/mL]
1 | Cc1ccccc1Cn1ccc(CO[C@H](C)[C@](O)(Cn2cncn2)c2ccc(F)cc2F)n1 | 0.5 (≈ 1.1 µM) | 8 (≈ 17.6 µM) | 0.25 (≈ 0.551 µM) | 0.5 (≈ 1.1 µM) | ≤ 0.125 | 1 (≈ 2.21 µM) | > 64 | – | – | – | – | –
2 | C[C@@H](OCc1ccn(Cc2ccc(F)cc2F)n1)[C@](O)(Cn1cncn1)c1ccc(F)cc1F | 0.5 (≈ 1.05 µM) | 4 (≈ 8.41 µM) | 0.25 (≈ 0.526 µM) | 0.5 (≈ 1.05 µM) | ≤ 0.125 | 0.25 (≈ 0.526 µM) | 0.25 (≈ 0.526 µM) | – | – | – | – | –
3 | C[C@@H](OCc1ccn(Cc2c(F)cc(F)cc2F)n1)[C@](O)(Cn1cncn1)c1ccc(F)cc1F | 0.5 (≈ 1.01 µM) | 8 (≈ 16.2 µM) | 0.5 (≈ 1.01 µM) | 0.5 (≈ 1.01 µM) | 0.25 (≈ 0.507 µM) | 0.5 (≈ 1.01 µM) | 64 (≈ 130 µM) | – | – | – | – | –
4 | C[C@@H](OCc1ccn(Cc2c(Cl)cc(Cl)cc2Cl)n1)[C@](O)(Cn1cncn1)c1ccc(F)cc1F | ≤ 0.125 | 8 (≈ 14.7 µM) | 0.5 (≈ 0.921 µM) | 2 (≈ 3.68 µM) | 0.25 (≈ 0.461 µM) | 1 (≈ 1.84 µM) | 64 (≈ 118 µM) | – | – | – | – | –
5 | C[C@@H](OCc1ccn(Cc2cccc(Cl)c2)n1)[C@](O)(Cn1cncn1)c1ccc(F)cc1F | 0.5 (≈ 1.06 µM) | 4 (≈ 8.44 µM) | ≤ 0.125 | 0.5 (≈ 1.06 µM) | ≤ 0.125 | 0.5 (≈ 1.06 µM) | 0.25 (≈ 0.528 µM) | – | – | – | – | –
6 | C[C@@H](OCc1ccn(Cc2ccc([N+](=O)[O-])cc2)n1)[C@](O)(Cn1cncn1)c1ccc(F)cc1F | 0.5 (≈ 1.03 µM) | 4 (≈ 8.26 µM) | ≤ 0.125 | 0.25 (≈ 0.516 µM) | ≤ 0.125 | ≤ 0.125 | 0.5 (≈ 1.03 µM) | – | – | – | – | –
7 | C[C@@H](OCc1ccn(Cc2cccc(F)c2F)n1)[C@](O)(Cn1cncn1)c1ccc(F)cc1F | 0.5 (≈ 1.05 µM) | 8 (≈ 16.8 µM) | 0.25 (≈ 0.526 µM) | 0.5 (≈ 1.05 µM) | ≤ 0.125 | 0.25 (≈ 0.526 µM) | 0.25 (≈ 0.526 µM) | – | – | – | – | –
8 | C[C@@H](OCc1ccn(Cc2ccccc2Cl)n1)[C@](O)(Cn1cncn1)c1ccc(F)cc1F | 0.25 (≈ 0.528 µM) | 8 (≈ 16.9 µM) | 0.25 (≈ 0.528 µM) | 0.5 (≈ 1.06 µM) | ≤ 0.125 | 0.5 (≈ 1.06 µM) | 32 (≈ 67.5 µM) | – | – | – | – | –
9 | C[C@@H](OCc1ccn(Cc2ccccc2F)n1)[C@](O)(Cn1cncn1)c1ccc(F)cc1F | 0.25 (≈ 0.547 µM) | 8 (≈ 17.5 µM) | 0.25 (≈ 0.547 µM) | 0.5 (≈ 1.09 µM) | ≤ 0.125 | 0.25 (≈ 0.547 µM) | ~64 (≈ 140 µM) | – | – | – | – | –
10 | Cc1ccc(Cn2ccc(CO[C@H](C)[C@](O)(Cn3cncn3)c3ccc(F)cc3F)n2)cc1 | 0.5 (≈ 1.1 µM) | 2 (≈ 4.41 µM) | 0.25 (≈ 0.551 µM) | 0.25 (≈ 0.551 µM) | ≤ 0.125 | 2 (≈ 4.41 µM) | 16 (≈ 35.3 µM) | – | – | – | – | –
11 | C[C@@H](OCc1ccn(Cc2ccc(I)cc2)n1)[C@](O)(Cn1cncn1)c1ccc(F)cc1F | 0.25 (≈ 0.442 µM) | 2 (≈ 3.54 µM) | ≤ 0.125 | 0.25 (≈ 0.442 µM) | ≤ 0.125 | ≤ 0.125 | 0.5 (≈ 0.884 µM) | 16 (≈ 28.3 µM) | 4 (≈ 7.08 µM) | 16 (≈ 28.3 µM) | 8 (≈ 14.2 µM) | 16 (≈ 28.3 µM)
12 | C[C@@H](OCc1ccn(Cc2cc(Cl)ccc2Cl)n1)[C@](O)(Cn1cncn1)c1ccc(F)cc1F | 0.25 (≈ 0.492 µM) | 4 (≈ 7.87 µM) | 0.5 (≈ 0.984 µM) | 1 (≈ 1.97 µM) | 0.25 (≈ 0.492 µM) | 0.5 (≈ 0.984 µM) | 32 (≈ 62.9 µM) | – | – | – | – | –
13 | C[C@@H](OCc1ccn(Cc2c(F)cccc2F)n1)[C@](O)(Cn1cncn1)c1ccc(F)cc1F | 0.5 (≈ 1.05 µM) | 16 (≈ 33.7 µM) | 0.5 (≈ 1.05 µM) | 0.5 (≈ 1.05 µM) | ≤ 0.125 | 0.5 (≈ 1.05 µM) | 0.25 (≈ 0.526 µM) | – | – | – | – | –
14 | C[C@@H](OCc1ccn(Cc2ccc(C#N)cc2)n1)[C@](O)(Cn1cncn1)c1ccc(F)cc1F | 1 (≈ 2.15 µM) | 8 (≈ 17.2 µM) | 0.25 (≈ 0.538 µM) | 0.5 (≈ 1.08 µM) | ≤ 0.125 | 1 (≈ 2.15 µM) | 0.5 (≈ 1.08 µM) | – | – | – | – | –
15 | C[C@@H](OCc1ccn(Cc2ccc(C(F)(F)F)cc2)n1)[C@](O)(Cn1cncn1)c1ccc(F)cc1F | 0.5 (≈ 0.985 µM) | 4 (≈ 7.88 µM) | ≤ 0.125 | 0.5 (≈ 0.985 µM) | 0.25 (≈ 0.493 µM) | 1 (≈ 1.97 µM) | 0.5 (≈ 0.985 µM) | – | – | – | – | –
16 | C[C@@H](OCc1ccn(Cc2ccc(OC(F)(F)F)cc2)n1)[C@](O)(Cn1cncn1)c1ccc(F)cc1F | 0.5 (≈ 0.955 µM) | 2 (≈ 3.82 µM) | 0.25 (≈ 0.478 µM) | 0.5 (≈ 0.955 µM) | 0.25 (≈ 0.478 µM) | 2 (≈ 3.82 µM) | 0.5 (≈ 0.955 µM) | – | – | – | – | –
17 | C[C@@H](OCc1ccn(Cc2ccc(F)cc2Cl)n1)[C@](O)(Cn1cncn1)c1ccc(F)cc1F | 0.25 (≈ 0.508 µM) | 4 (≈ 8.13 µM) | 0.25 (≈ 0.508 µM) | 1 (≈ 2.03 µM) | ≤ 0.125 | 1 (≈ 2.03 µM) | 8 (≈ 16.3 µM) | – | – | – | – | –
18 | C[C@@H](OCc1ccn(Cc2cccc(Cl)c2Cl)n1)[C@](O)(Cn1cncn1)c1ccc(F)cc1F | 0.5 (≈ 0.984 µM) | 8 (≈ 15.7 µM) | ≤ 0.125 | 0.25 (≈ 0.492 µM) | 0.25 (≈ 0.492 µM) | 0.5 (≈ 0.984 µM) | 16 (≈ 31.5 µM) | – | – | – | – | –
19 | C[C@@H](OCc1ccn(Cc2ccccc2)n1)[C@](O)(Cn1cncn1)c1ccc(F)cc1F | 0.25 (≈ 0.569 µM) | 4 (≈ 9.1 µM) | 0.5 (≈ 1.14 µM) | 0.5 (≈ 1.14 µM) | 0.5 (≈ 1.14 µM) | 0.25 (≈ 0.569 µM) | 32 (≈ 72.8 µM) | – | – | – | – | –
20 | C[C@@H](OCc1ccn(Cc2c(Cl)cccc2Cl)n1)[C@](O)(Cn1cncn1)c1ccc(F)cc1F | 0.25 (≈ 0.492 µM) | 8 (≈ 15.7 µM) | 0.5 (≈ 0.984 µM) | 1 (≈ 1.97 µM) | 0.25 (≈ 0.492 µM) | 0.5 (≈ 0.984 µM) | 32 (≈ 62.9 µM) | – | – | – | – | –
21 | COc1ccc(Cn2ccc(CO[C@H](C)[C@](O)(Cn3cncn3)c3ccc(F)cc3F)n2)cc1 | 0.5 (≈ 1.06 µM) | 8 (≈ 17 µM) | 0.25 (≈ 0.532 µM) | 1 (≈ 2.13 µM) | ≤ 0.125 | 0.5 (≈ 1.06 µM) | > 64 | – | – | – | – | –
22 | C[C@@H](OCc1ccn(Cc2cccc(F)c2)n1)[C@](O)(Cn1cncn1)c1ccc(F)cc1F | 0.25 (≈ 0.547 µM) | 4 (≈ 8.74 µM) | ≤ 0.125 | 0.5 (≈ 1.09 µM) | ≤ 0.125 | 0.25 (≈ 0.547 µM) | 64 (≈ 140 µM) | – | – | – | – | –
23 | C[C@@H](OCc1ccn(Cc2ccc(Cl)cc2Cl)n1)[C@](O)(Cn1cncn1)c1ccc(F)cc1F | 0.5 (≈ 0.984 µM) | 4 (≈ 7.87 µM) | 0.25 (≈ 0.492 µM) | 0.25 (≈ 0.492 µM) | 0.25 (≈ 0.492 µM) | 1 (≈ 1.97 µM) | 32 (≈ 62.9 µM) | – | – | – | – | –
24 | Cc1cccc(Cn2ccc(CO[C@H](C)[C@](O)(Cn3cncn3)c3ccc(F)cc3F)n2)c1 | 0.5 (≈ 1.1 µM) | 8 (≈ 17.6 µM) | 0.25 (≈ 0.551 µM) | 0.5 (≈ 1.1 µM) | ≤ 0.125 | 4 (≈ 8.82 µM) | > 64 | – | – | – | – | –

From ChEMBL document CHEMBL5579851, “Synthesis and antifungal evaluation of novel triazole derivatives bearing a pyrazole-methoxyl moiety” (Eur J Med Chem, 2024)
